# Measurements taken from ChEMBL document CHEMBL1201862, “PubChem BioAssay data set” (2004).
# Activity calls are given as the source filed them.
# Columns and labels:
# [1] = microbe, parasite or virus in culture; assay type: functional; conditions: Mycobacterium tuberculosis
# Troponin, cardiac muscle = Troponin, cardiac muscle (Homo sapiens, UniProt P19429+P45379+P63316); test: Fluorescence-based biochemical high throughput dose response assay for activators of the calcium sensitivity of cardiac Regulated Thin Filaments (RTF). [Related pubchem assays (depositor defined):AID493008, AID493018, AID504382, AID504383]; assay type: protein-complex assay
# T-cell = test: loss of vesicle association with mouse CD8+ T cells – mouse 2C CD8+ T cells, flow cytometry, dose response (AID 485284); assay type: functional
# Integrin alpha-L = Integrin alpha-L (Mus musculus, UniProt P24063); test: modulators of CD8 T cell-vesicle binding, dose response, powder samples, mouse 2C CD8+ cells (AID 504565); assay type: functional
# [2] = viability of HCT116 lacking mutant beta-catenin – cell-based, human colon tumor, dose response (AID 1045); assay type: functional;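 also: HCT116 colon tumor cells with beta catenin knocked out; cells exposed to compound for 60 hours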
# [3] = molecular target: T1, Heat shock factor protein 1 (Mus musculus, UniProt P38532); test: enhancement of HSF1-driven luciferase signal – cell-based, NIH3T3, luminescence, dose retest, confirmation (AID 435004); assay type: functional;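 also: stress induced by proteasome inhibitor MG132 added 30 min after compound; luciferase reporter driven by HSF1 response element in NIH3T3 cells; actives raise luminescence as potentiators of the MG132 stress response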
# T1 sequence (P38532 whole entry): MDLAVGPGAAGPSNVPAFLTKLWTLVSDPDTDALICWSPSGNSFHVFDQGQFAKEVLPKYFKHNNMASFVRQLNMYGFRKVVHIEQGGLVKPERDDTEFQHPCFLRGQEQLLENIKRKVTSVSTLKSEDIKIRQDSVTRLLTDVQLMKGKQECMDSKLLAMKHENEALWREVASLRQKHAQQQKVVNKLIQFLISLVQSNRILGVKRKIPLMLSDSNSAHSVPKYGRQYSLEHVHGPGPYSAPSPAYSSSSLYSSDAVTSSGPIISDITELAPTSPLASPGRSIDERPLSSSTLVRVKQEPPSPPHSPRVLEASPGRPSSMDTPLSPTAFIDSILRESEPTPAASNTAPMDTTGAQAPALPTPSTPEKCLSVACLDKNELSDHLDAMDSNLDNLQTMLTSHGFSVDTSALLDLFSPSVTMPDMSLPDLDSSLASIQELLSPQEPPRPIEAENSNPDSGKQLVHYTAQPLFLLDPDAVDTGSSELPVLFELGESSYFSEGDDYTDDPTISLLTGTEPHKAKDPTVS
# [4] = Intein inhibitors as potential Tuberculosis drugs, a cytotoxicity screen. [Related pubchem assays (depositor defined):AID2221, AID2223, AID434968, AID435010, AID449749, AID449750, AID489010]; assay type: functional
# [5] = viability of PTEN-deleted HCT116 cells – cell-based, HCT116 PTEN knockout, dose response (AID 1047); assay type: functional;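 also: HCT116 colon tumor cells with PTEN knocked out; cells exposed to compound for 60 hours before readout; potency for loss of cell viability measured by luminescence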
# Protein RecA = molecular target: T2, Protein RecA (Mycobacterium tuberculosis, UniProt P9WHJ3); test: Fluorescence Cell-Free Homogeneous Dose Retest to Identify Inhibitors of RecA-Intein Splicing Activity. [Related pubchem assays (depositor defined):AID2097, AID2223, AID489010, AID492950]; assay type: functional
# T2 sequence (P9WHJ3 whole entry): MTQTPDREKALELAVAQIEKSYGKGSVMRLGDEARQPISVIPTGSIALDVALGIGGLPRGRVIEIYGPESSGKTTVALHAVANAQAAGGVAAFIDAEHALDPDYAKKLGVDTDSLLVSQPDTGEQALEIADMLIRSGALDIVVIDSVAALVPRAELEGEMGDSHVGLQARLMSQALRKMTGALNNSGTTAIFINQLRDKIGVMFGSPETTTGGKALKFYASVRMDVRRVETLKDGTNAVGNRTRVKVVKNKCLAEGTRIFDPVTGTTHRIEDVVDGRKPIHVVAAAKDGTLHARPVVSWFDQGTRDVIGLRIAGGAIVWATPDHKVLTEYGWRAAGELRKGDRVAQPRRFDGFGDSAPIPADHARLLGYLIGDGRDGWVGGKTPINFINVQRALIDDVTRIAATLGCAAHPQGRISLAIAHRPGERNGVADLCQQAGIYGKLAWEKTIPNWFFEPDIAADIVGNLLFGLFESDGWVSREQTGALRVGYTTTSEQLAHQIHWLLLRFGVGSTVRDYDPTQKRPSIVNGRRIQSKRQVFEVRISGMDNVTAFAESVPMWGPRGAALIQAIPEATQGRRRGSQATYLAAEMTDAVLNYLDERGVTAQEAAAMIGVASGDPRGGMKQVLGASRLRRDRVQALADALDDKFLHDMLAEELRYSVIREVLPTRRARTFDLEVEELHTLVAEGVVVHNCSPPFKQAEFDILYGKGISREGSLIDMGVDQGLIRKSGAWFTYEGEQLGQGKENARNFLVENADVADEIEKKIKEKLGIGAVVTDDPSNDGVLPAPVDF
# [6] = molecular target: T3, Replicative DNA helicase DnaB (Mycobacterium tuberculosis, UniProt P9WMR3); test: DnaB intein splicing inhibitors, dose response, biochemical, cell-free fluorescence (AID 449749); assay type: functional
# T3 sequence (P9WMR3 whole entry): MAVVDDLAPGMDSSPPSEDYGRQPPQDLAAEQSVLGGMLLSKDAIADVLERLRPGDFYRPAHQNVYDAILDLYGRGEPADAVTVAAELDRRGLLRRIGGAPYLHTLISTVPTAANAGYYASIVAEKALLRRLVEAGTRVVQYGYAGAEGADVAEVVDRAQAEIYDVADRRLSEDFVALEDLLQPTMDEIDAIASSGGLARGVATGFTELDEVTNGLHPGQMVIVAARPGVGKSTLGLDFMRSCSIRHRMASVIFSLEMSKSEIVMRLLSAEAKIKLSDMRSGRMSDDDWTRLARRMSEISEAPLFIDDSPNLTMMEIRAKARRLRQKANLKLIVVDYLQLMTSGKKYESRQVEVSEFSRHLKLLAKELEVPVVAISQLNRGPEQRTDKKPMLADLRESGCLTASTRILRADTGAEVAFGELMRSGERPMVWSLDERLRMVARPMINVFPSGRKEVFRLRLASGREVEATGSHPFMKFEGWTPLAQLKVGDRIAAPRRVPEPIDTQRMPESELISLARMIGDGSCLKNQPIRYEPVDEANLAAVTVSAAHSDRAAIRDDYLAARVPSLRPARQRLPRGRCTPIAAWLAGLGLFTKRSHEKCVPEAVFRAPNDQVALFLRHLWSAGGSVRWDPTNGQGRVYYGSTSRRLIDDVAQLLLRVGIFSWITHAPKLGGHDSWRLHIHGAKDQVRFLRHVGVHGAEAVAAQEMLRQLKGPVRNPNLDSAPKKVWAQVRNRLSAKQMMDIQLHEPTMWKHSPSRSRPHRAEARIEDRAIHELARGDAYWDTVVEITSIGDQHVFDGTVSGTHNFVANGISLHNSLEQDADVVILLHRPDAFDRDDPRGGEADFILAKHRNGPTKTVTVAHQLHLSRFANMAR
# [7] = molecular target: T4, Kappa-type opioid receptor (Homo sapiens, UniProt P41145); test: SAR analysis of small molecule antagonists of the kappa opioid receptor via a luminescent beta-arrestin assay - Set 4. [Related pubchem assays (depositor defined):AID1777, AID1778, AID1785, AID1786, AID1966, AID2133, AID2136, AID2285]; assay type: functional
# [8] = molecular target: T4, Kappa-type opioid receptor; test: SAR analysis of small molecule antagonists of the kappa opioid receptor via a luminescent beta-arrestin assay - Set 5. [Related pubchem assays (depositor defined):AID1778, AID1785]; assay type: functional
# [9] = molecular target: T5, Tyrosine-protein phosphatase non-receptor type 22 (Homo sapiens, UniProt Q9Y2R2); assay type: functional
# [10] = molecular target: T5, Tyrosine-protein phosphatase non-receptor type 22; assay type: functional; remark: listed apart in the source
# [11] = molecular target: Tyrosine-protein phosphatase non-receptor type 7 (Homo sapiens, UniProt P35236); assay type: functional
# Large T antigen = Large T antigen (Simian virus 40, UniProt P03070); assay type: functional, Betapolyomavirus macacae;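 also: Confirmatory-stage PubChem screen for compounds that inhibit SV40 T antigen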
# [12] = molecular target: T6, Rac GTPase-activating protein 1 (Homo sapiens, UniProt Q9H0H5); test: blockers of MgcRacGAP-driven Rac1 GTP hydrolysis – biochemical, ADP Hunter fluorescence, primary and confirmatory, confirmation (AID 624330); assay type: functional
# T6 sequence (Q9H0H5 whole entry): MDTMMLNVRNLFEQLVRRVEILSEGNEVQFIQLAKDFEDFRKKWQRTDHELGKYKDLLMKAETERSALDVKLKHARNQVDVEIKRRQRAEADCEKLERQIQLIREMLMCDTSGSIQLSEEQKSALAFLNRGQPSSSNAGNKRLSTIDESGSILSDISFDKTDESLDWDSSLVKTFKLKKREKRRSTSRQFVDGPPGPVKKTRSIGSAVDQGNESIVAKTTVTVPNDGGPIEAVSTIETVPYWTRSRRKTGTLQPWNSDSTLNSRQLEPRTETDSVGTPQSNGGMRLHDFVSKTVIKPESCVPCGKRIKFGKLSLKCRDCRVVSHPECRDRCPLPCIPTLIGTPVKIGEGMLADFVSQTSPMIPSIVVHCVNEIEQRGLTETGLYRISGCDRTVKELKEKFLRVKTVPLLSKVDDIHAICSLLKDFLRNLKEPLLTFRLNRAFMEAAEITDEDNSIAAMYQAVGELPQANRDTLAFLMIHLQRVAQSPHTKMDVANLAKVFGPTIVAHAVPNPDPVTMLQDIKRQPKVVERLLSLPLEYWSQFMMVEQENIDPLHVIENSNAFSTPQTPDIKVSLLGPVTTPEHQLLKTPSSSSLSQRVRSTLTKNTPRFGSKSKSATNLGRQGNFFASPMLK
# [13] = molecular target: T7, Voltage-gated N-type calcium channel alpha-1B subunit/Amyloid beta A4 precursor protein-binding family A member 1 (Homo sapiens, UniProt Q00975+Q02410); assay type: protein assay
# Genome polyprotein = Genome polyprotein (dengue virus type 2, UniProt P29990); test: flavivirus cap methylation enzyme inhibition – biochemical, confirmation dose response, primary screen (AID 588689); assay type: functional
# [14] = non-specific 3'UTR reporter inhibition in Clone20-Shn3RL – cell-based, Renilla luciferase, cherry-picked, counter-screen for Shn3 inhibitor project, dose response (AID 624133); assay type: functional
# [15] = viability of uninfected HEp-2 cells – cell-based, HTS, cytotoxicity control for RSV inhibitor project, dose response (AID 2410); assay type: functional; conditions: human respiratory syncytial virus
# [16] = molecular target: Neurotensin receptor type 1 (Homo sapiens, UniProt P30989); assay type: functional;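 also: Image-based confirmatory dose-response assay measuring agonist activity at NTR1; NTR1-expressing U2OS osteosarcoma cells imaged for beta-arrestin GFP spot formation; agonist potency where compounds increase beta-arrestin recruitment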
# [17] = reduction of Shn3 3'UTR-driven luciferase in osteoblasts – cell-based, Clone20 osteoblasts, firefly luciferase, cherry-picked, dose response (AID 624132); assay type: functional;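 also: firefly luciferase luminescence from reporter carrying the Shn3 3'UTR in osteoblasts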
# [18] = molecular target: T7, Voltage-gated N-type calcium channel alpha-1B subunit/Amyloid beta A4 precursor protein-binding family A member 1; assay type: protein assay; remark: listed apart in the source
# [19] = viability loss in HeLa cells – cytotoxicity control for MgcRacGAP inhibitor project, dose response (AID 624300); assay type: functional
# INS1 = test: INS-1E survival protection against cytokine death – cell-based, luminescence, retest, dose response (AID 449756); assay type: functional; conditions: Rattus norvegicus;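 also: cell death triggered by IL-1 beta plus TNF-alpha plus IFN-gamma mixture; protective hits raise ATP signal compared with cytokine alone wells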
# [20] = molecular target: DNA damage-inducible transcript 3 protein (Mus musculus, UniProt P35639); assay type: functional, Cricetulus griseus
# [21] = HEK-293T viability loss after treatment – luminescence, T-cell screen hits, cytotoxicity control for TCR NF-kB inhibitor project, dose response (AID 489026); assay type: functional, cell-based;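 also: cells exposed to compound about 14 hours before the viability readout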
# Paired box protein Pax-8 = Paired box protein Pax-8 (Homo sapiens, UniProt Q06710); test: PAX8 transcriptional activity inhibition in RMG-I – RMG-I cells, luciferase, cherry-pick, dose response (AID 687027); assay type: functional, cell-based;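 also: luciferase reporter driven by Pax8 target thyroperoxidase promoter measured by SteadyGlo luminescence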
# [22] = Vero E6 cell cytotoxicity, dose response, cytotoxicity control for non-replicating M. tuberculosis project, secondary assay (AID 492998); assay type: functional, VeroE6; conditions: Vero C1008
compound,measurement,setting,value
CC(Oc1ccc(F)cc1)C(=O)Nc1sc2c(c1C(=O)NCc1cccnc1)CCCC2 (stereo unspecified),CC50,[1],> 40 µM (active)
same,EC50,"Troponin, cardiac muscle",> 71.5 µM (inactive)
CCOC(=O)c1ccc(S(=O)(=O)N2CCN(C3CCCC3)CC2)cc1,EC50,T-cell,22.2 µM (active)
same,EC50,Integrin alpha-L,11 µM (active)
Cc1cc(C)cc(Cn2ncc(Cl)c(Cl)c2=O)c1,EC50,[2],6.91 µM (active)
same,EC50,[3],21.7 µM (active)
same,CC50,[4],22.5 µM (active)
same,EC50,[5],8.8 µM (active)
same,EC50,Protein RecA,0.985 µM (active)
same,AC50,[6],2.12 µM (active)
Cc1ccc(S(=O)(=O)NCc2ccc(C(=O)NCCN(Cc3ccccc3)CC(C)C)cc2)cc1,IC50,[7],> 20 µM (inactive)
same,IC50,[8],4.33 µM (active)
O=C(NCc1ccccc1)c1cncc(Br)c1,IC50,[9],> 79.4 µM (inactive)
same,IC50,[10],> 79.4 µM (inactive)
same,IC50,[11],> 79.4 µM (inactive)
Cc1ccc(-c2ccc(/C=C3\C(=O)ON=C3c3ccccc3)o2)c([N+](=O)[O-])c1,IC50,Large T antigen,29.5 µM (active)
same,IC50,[12],67.2 µM (active)
same,IC50,[13],10.5 µM (active)
same,IC50,Genome polyprotein,11.1 µM (active)
same,AC50,[14],15 µM (active)
same,CC50,[15],9.29 µM (active)
same,EC50,[16],7.89 µM (active)
same,AC50,[17],3.3 µM (active)
same,IC50,[18],> 50 µM (inactive)
same,CC50,[19],50 µM (active)
same,AC50,INS1,7.23 µM (active)
same,Absolute IC50 (CHOP),[20],10 µM
COc1ccc(C[C@H](N)C(=O)N[C@H]2[C@@H](O)[C@H](n3cnc4c(N(C)C)ncnc43)O[C@@H]2CO)cc1,CC50,[1],4.73 µM (active)
same,IC50,[21],> 80 µM (inactive)
same,AC50,Paired box protein Pax-8,0.546 µM (active)
O=C(CCS(=O)(=O)Cc1ccccc1)Nc1ncc([N+](=O)[O-])s1,CC50,[22],> 20 µM (active)
